From ChEMBL document CHEMBL3774310, “Discovery of antitumor anthra[2,3-b]furan-3-carboxamides: Optimization of synthesis and evaluation of antitumor properties” (Eur J Med Chem, 2016)

Assays:
[1] = target: Fibroblast growth factor receptor 1 (Homo sapiens, UniProt P11362, V561M); test: Inhibition of human FGF-R1 V561M mutant expressed in sf9 cells by flashplate based radiometric 33pan-quinase assay
[2] = target: Mitogen-activated protein kinase kinase kinase 7 (Homo sapiens, UniProt O43318); test: Inhibition of human MAP3K7 by flashplate based radiometric 33pan-quinase assay
[3] = target: Serine/threonine-protein kinase tousled-like 1 (Homo sapiens, UniProt Q9UKI8); test: Inhibition of human N-terminal FLAG, C-terminal HIS8-tagged TLK1 expressed in sf9 cells by flashplate based radiometric 33pan-quinase assay
[4] = tested on: Mus musculus; test: Toxicity in DBA2/BDF1 mouse transplanted with mouse P388 cells assessed as spleen mass at 50 mg/kg, ip dosed daily for 5 days (reference value: 142 mg); format: organism-based; conditions: in vivo, 120 h
[5] = tested on: P388; test: Antitumor activity against mouse P388 cells transplanted in DBA2/BDF1 mouse assessed as mean life span at 5 mg/kg, ip dosed daily for 5 days (reference value: 9.6 +/- 0.5 day); format: functional
[6] = tested on: P388; test: Antitumor activity against mouse P388 cells transplanted in DBA2/BDF1 mouse assessed as mean life span at 40 mg/kg, ip dosed daily for 5 days (reference value: 9.6 +/- 0.5 day); format: functional
[7] = tested on: P388; test: Antitumor activity against mouse P388 cells transplanted in DBA2/BDF1 mouse assessed as mean life span at 5 mg/kg, ip dosed daily for 5 days relative to control; format: functional
[8] = tested on: P388; test: Antitumor activity against mouse P388 cells transplanted in DBA2/BDF1 mouse assessed as mean life span at 20 mg/kg, ip dosed daily for 5 days relative to control; format: functional
[9] = tested on: P388; test: Antitumor activity against mouse P388 cells transplanted in DBA2/BDF1 mouse assessed as mean life span at 40 mg/kg, ip dosed daily for 5 days relative to control; format: functional
[10] = tested on: Calf thymus DNA; conditions: Bos taurus
Description: Binding affinity to calf thymus DNA assessed as binding constant by Scatchard plot analysis

[11] = tested on: K562; test: cells; conditions: Homo sapiens, K562, 72 h
Description: Antiproliferative activity against human K562 cells after 72 hrs by MTT assay

[12] = cells; conditions: Homo sapiens, HCT-116, 72 h
Description: Antiproliferative activity against human HCT116 cells after 72 hrs by MTT assay

Sequence of Fibroblast growth factor receptor 1 (P11362 22-822 V561M limits assumed): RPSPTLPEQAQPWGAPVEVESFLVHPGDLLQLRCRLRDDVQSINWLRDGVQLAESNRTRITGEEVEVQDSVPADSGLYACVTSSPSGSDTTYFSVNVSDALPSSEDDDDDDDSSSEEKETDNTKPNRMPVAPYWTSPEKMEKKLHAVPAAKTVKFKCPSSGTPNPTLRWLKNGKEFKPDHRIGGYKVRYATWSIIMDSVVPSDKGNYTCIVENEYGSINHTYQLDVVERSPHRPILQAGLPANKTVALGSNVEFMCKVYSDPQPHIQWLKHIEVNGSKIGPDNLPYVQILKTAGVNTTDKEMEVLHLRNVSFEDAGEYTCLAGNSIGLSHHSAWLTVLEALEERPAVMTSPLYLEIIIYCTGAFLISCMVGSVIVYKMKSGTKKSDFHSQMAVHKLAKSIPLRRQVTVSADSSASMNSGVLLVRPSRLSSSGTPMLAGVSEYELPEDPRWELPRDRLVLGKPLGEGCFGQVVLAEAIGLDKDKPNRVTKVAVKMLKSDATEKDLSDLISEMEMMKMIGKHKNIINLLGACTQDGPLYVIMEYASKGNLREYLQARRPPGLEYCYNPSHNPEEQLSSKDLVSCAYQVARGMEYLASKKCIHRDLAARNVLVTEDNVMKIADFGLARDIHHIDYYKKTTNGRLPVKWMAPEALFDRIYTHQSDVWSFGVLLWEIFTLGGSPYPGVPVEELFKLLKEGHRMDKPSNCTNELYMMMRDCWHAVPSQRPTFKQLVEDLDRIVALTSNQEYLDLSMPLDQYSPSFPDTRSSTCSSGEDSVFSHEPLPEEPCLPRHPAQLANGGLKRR
Sequence of Serine/threonine-protein kinase tousled-like 1 (Q9UKI8 whole entry): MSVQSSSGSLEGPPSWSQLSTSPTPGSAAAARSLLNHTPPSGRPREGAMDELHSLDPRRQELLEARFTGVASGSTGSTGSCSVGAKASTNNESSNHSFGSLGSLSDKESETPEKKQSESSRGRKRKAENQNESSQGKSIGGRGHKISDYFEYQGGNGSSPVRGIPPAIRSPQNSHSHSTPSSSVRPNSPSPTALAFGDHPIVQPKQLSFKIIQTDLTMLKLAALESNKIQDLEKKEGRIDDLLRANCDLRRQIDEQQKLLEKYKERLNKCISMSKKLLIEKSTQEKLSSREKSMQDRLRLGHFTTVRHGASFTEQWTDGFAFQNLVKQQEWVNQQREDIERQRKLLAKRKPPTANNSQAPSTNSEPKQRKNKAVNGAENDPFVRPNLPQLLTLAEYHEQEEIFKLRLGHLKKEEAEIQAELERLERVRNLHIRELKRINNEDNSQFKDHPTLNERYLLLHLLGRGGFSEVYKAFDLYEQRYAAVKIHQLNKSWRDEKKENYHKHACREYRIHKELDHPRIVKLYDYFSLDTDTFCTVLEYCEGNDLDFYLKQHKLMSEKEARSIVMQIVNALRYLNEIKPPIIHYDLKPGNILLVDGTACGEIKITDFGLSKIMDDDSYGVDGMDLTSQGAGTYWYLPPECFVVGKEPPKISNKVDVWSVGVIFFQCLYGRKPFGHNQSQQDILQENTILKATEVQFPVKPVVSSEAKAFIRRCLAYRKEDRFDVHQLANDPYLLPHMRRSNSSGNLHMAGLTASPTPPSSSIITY
Sequence of Mitogen-activated protein kinase kinase kinase 7 (O43318 whole entry): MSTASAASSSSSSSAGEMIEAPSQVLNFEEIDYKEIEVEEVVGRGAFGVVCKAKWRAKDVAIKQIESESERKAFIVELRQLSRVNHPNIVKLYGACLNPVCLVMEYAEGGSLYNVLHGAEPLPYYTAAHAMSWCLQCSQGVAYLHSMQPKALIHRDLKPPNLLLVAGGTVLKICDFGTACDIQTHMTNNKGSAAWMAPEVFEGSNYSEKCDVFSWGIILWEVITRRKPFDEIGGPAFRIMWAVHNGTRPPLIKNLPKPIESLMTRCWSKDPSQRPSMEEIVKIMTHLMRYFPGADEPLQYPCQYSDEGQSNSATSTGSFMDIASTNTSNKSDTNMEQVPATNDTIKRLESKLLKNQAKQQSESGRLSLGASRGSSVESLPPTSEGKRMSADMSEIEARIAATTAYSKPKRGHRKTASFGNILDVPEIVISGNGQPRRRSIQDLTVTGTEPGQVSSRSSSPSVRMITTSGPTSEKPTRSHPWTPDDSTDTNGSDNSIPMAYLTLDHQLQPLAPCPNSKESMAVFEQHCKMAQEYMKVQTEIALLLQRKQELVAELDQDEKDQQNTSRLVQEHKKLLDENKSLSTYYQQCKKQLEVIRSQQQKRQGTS

In the case of `CS(=O)(=O)O.Cc1oc2c(O)c3c(c(O)c2c1C(=O)N1CC[C@H](N)C1)C(=O)c1ccccc1C3=O`, the IC50 [1] is reported as < 5 µM, the IC50 [2] is reported as < 5 µM and the IC50 [3] is reported as < 5 µM. The Activity [4] was 87 mg, the Activity [5] was 13.4 days and the Activity [6] was 25.2 days. It also gave an Activity [7] of 140%, an Activity [8] of 222% and an Activity [9] of 262%.

In the case of `CS(=O)(=O)O.Cc1oc2c(O)c3c(c(O)c2c1C(=O)N1CC[C@@H](N)C1)C(=O)c1ccccc1C3=O`, the Ka [10] is reported as 5 ×10⁵ /M, the IC50 [11] is reported as 1.1 µM and the IC50 [12] is reported as 1.2 µM.
